# Assay results from patent EP0408760B1, “NEW HYDROXYLAMINE DERIVATIVE” (FUJISAWA PHARMACEUTICAL CO., LTD., priority 1988, dated 1990).
# Tested on: D-Galactosamine-induced hepatitis in rats
# Test: Effect of compound on D-Galactosamine-induced hepatitis in rats (serum GOT and GPT)
# Format: in vivo
# Conditions: orally 3 hour before and after D-Galactosamine, blood 24 hours later, male Wistar rats
# Method: Method : Effect of compound on D-Galactosamine-induced hepatitis in rats
# Acute hepatitis was induced in male Wistar rats at 6 weeks of age by the intraperitoneal injection of 80 mg/ml D-Galactosamine in saline at the volume of 5 ml/kg. Blood samples were taken in rats under ether anaesthesia 24 hours later.
# After centrifugation for the separation of sera, the levels of GOT and GPT were determined spectrophotometrically according to Biochemical Analyzer TBA-20R (Toshiba).
# Compound was dissolved in polyethylene glycol 400, and administered orally 3 hour before and after the injection of D-Galactosamine.
# The levels of serum GOT and GPT in group of animals were measured as described above, and the mean value of each group calculated, including normal rats without D-Galactosamine injection.
# The effect of compound was expressed as the percentage Inhibition at serum GOT and GPT, taking activity of control serum as 0% Inhibtion and that of normal serum as 100% Inhibition.
smiles,measurement,setting,value
"CCNC(=O)N(O)CC1=Cc2cccc(Oc3ccccc3)c2CC1 [Test Compound (f), N-[(3,4-Dihydro-5-phenoxy-2-naphthyl)methyl]-N-hydroxy-N'-ethylurea]",Inhibition (%) serum GOT,dose 1 mg/kg,38%
same,Inhibition (%) serum GPT,dose 1 mg/kg,42%
same,Inhibition (%) serum GOT,dose 10 mg/kg,40%
same,Inhibition (%) serum GPT,dose 10 mg/kg,37%
same,Inhibition (%) serum GOT,dose 32 mg/kg,67%
same,Inhibition (%) serum GPT,dose 32 mg/kg,64%
